Test results published in the NIST ThermoML archive (doi:10.1021/acs.jced.8b00132).
“And” between values parts separate entries of the source, which are not always exact repeats. Equal entries are not always repeated.

Conditions: Gas

O=C(C(F)(F)C(F)(F)F)C(F)(C(F)(F)F)C(F)(F)F [dodecafluoro-2-methylpentan-3-one]
Conditions	thermal conductivity
454.15 K, 782 kPa, transient hot wire	0.02353 W/m/K
454.15 K, 47000 kPa, transient hot wire	0.06263 W/m/K
454.17 K, 779 kPa, transient hot wire	0.02342 W/m/K
454.18 K, 46933 kPa, transient hot wire	0.06269 W/m/K and 0.06261 W/m/K
454.2 K, 169 kPa, hot wire	0.0226 W/m/K
454.2 K, 1365 kPa, transient hot wire	0.0246 W/m/K
454.21 K, 169 kPa, hot wire	0.02248 W/m/K
454.21 K, 1366 kPa, transient hot wire	0.02448 W/m/K
454.22 K, 47 kPa, hot wire	0.0225 W/m/K and 0.02246 W/m/K
454.23 K, 526 kPa, transient hot wire	0.02368 W/m/K
454.26 K, 526 kPa, transient hot wire	0.02374 W/m/K
454.32 K, 351 kPa, transient hot wire	0.02402 W/m/K
454.32 K, 354 kPa, transient hot wire	0.02406 W/m/K
454.33 K, 781 kPa, transient hot wire	0.02352 W/m/K
454.36 K, 1365 kPa, transient hot wire	0.02461 W/m/K
454.38 K, 1365 kPa, transient hot wire	0.02468 W/m/K
454.41 K, 524 kPa, transient hot wire	0.02367 W/m/K
454.41 K, 526 kPa, transient hot wire	0.02369 W/m/K
454.49 K, 780 kPa, transient hot wire	0.02364 W/m/K
454.5 K, 345 kPa, transient hot wire	0.02401 W/m/K
454.5 K, 348 kPa, transient hot wire	0.02403 W/m/K
454.5 K, 779 kPa, transient hot wire	0.02369 W/m/K
454.54 K, 1365 kPa, transient hot wire	0.02476 W/m/K
454.58 K, 524 kPa, transient hot wire	0.02372 W/m/K
454.6 K, 523 kPa, transient hot wire	0.02364 W/m/K
454.67 K, 776 kPa, transient hot wire	0.0236 W/m/K
454.68 K, 341 kPa, transient hot wire	0.02404 W/m/K
454.68 K, 343 kPa, transient hot wire	0.02408 W/m/K
454.68 K, 778 kPa, transient hot wire	0.02361 W/m/K
454.78 K, 524 kPa, transient hot wire	0.02371 W/m/K
454.79 K, 524 kPa, transient hot wire	0.02372 W/m/K
454.86 K, 776 kPa, transient hot wire	0.02365 W/m/K
454.87 K, 339 kPa, transient hot wire	0.02408 W/m/K
454.87 K, 774 kPa, transient hot wire	0.02365 W/m/K
454.88 K, 340 kPa, transient hot wire	0.02406 W/m/K
454.98 K, 523 kPa, transient hot wire	0.02378 W/m/K and 0.02375 W/m/K
455.07 K, 337 kPa, transient hot wire	0.02422 W/m/K
455.08 K, 338 kPa, transient hot wire	0.02415 W/m/K
472.48 K, 3077 kPa, transient hot wire	0.03434 W/m/K
472.49 K, 3077 kPa, transient hot wire	0.03339 W/m/K
472.51 K, 2894 kPa, transient hot wire	0.03274 W/m/K
472.53 K, 2894 kPa, transient hot wire	0.034 W/m/K
472.53 K, 3077 kPa, transient hot wire	0.034 W/m/K
472.55 K, 3077 kPa, transient hot wire	0.03381 W/m/K
472.57 K, 2711 kPa, transient hot wire	0.03198 W/m/K
472.58 K, 2894 kPa, transient hot wire	0.03316 W/m/K
472.59 K, 2711 kPa, transient hot wire	0.03186 W/m/K
472.59 K, 2894 kPa, transient hot wire	0.03275 W/m/K
472.59 K, 3077 kPa, transient hot wire	0.03373 W/m/K
472.6 K, 3077 kPa, transient hot wire	0.03356 W/m/K
472.62 K, 3291 kPa, transient hot wire	0.03462 W/m/K
472.63 K, 2711 kPa, transient hot wire	0.03247 W/m/K
472.64 K, 2711 kPa, transient hot wire	0.03224 W/m/K
472.64 K, 2894 kPa, transient hot wire	0.03315 W/m/K and 0.03273 W/m/K
472.65 K, 3077 kPa, transient hot wire	0.03407 W/m/K and 0.03386 W/m/K
472.67 K, 2504 kPa, transient hot wire	0.03029 W/m/K
472.67 K, 3291 kPa, transient hot wire	0.03475 W/m/K and 0.03505 W/m/K
472.68 K, 2504 kPa, transient hot wire	0.02998 W/m/K
472.68 K, 2894 kPa, transient hot wire	0.03347 W/m/K
472.7 K, 2711 kPa, transient hot wire	0.0322 W/m/K
472.7 K, 2712 kPa, transient hot wire	0.03222 W/m/K
472.7 K, 3078 kPa, transient hot wire	0.03422 W/m/K and 0.0347 W/m/K
472.7 K, 4062 kPa, transient hot wire	0.03638 W/m/K
472.71 K, 2894 kPa, transient hot wire	0.03401 W/m/K
472.71 K, 4063 kPa, transient hot wire	0.03625 W/m/K
472.73 K, 3291 kPa, transient hot wire	0.03502 W/m/K and 0.03525 W/m/K
472.73 K, 3605 kPa, transient hot wire	0.036 W/m/K
472.74 K, 3604 kPa, transient hot wire	0.03572 W/m/K
472.75 K, 2505 kPa, transient hot wire	0.03037 W/m/K
472.75 K, 2894 kPa, transient hot wire	0.0336 W/m/K
472.75 K, 4063 kPa, transient hot wire	0.03659 W/m/K
472.76 K, 2711 kPa, transient hot wire	0.03263 W/m/K
472.77 K, 2712 kPa, transient hot wire	0.03232 W/m/K
472.77 K, 2894 kPa, transient hot wire	0.03342 W/m/K
472.77 K, 4063 kPa, transient hot wire	0.0364 W/m/K
472.78 K, 3291 kPa, transient hot wire	0.03545 W/m/K
472.78 K, 3605 kPa, transient hot wire	0.03545 W/m/K
472.8 K, 4819 kPa, transient hot wire	0.03773 W/m/K
472.81 K, 2264 kPa, transient hot wire	0.02846 W/m/K
472.81 K, 2265 kPa, transient hot wire	0.02848 W/m/K
472.81 K, 4062 kPa, transient hot wire	0.03638 W/m/K
472.81 K, 4820 kPa, transient hot wire	0.03801 W/m/K
472.82 K, 2505 kPa, transient hot wire	0.03067 W/m/K and 0.03052 W/m/K
472.83 K, 2712 kPa, transient hot wire	0.03316 W/m/K
472.83 K, 3291 kPa, transient hot wire	0.03561 W/m/K
472.83 K, 4063 kPa, transient hot wire	0.03659 W/m/K
472.84 K, 2711 kPa, transient hot wire	0.03262 W/m/K
472.85 K, 3605 kPa, transient hot wire	0.03577 W/m/K
472.86 K, 3292 kPa, transient hot wire	0.03541 W/m/K
472.86 K, 3605 kPa, transient hot wire	0.0358 W/m/K
472.87 K, 2265 kPa, transient hot wire	0.02848 W/m/K
472.87 K, 4820 kPa, transient hot wire	0.03777 W/m/K
472.88 K, 4820 kPa, transient hot wire	0.03795 W/m/K
472.91 K, 4063 kPa, transient hot wire	0.03666 W/m/K
472.92 K, 4063 kPa, transient hot wire	0.03656 W/m/K
472.93 K, 3605 kPa, transient hot wire	0.03577 W/m/K
472.94 K, 4821 kPa, transient hot wire	0.03795 W/m/K
472.95 K, 4821 kPa, transient hot wire	0.03782 W/m/K
472.96 K, 2265 kPa, transient hot wire	0.02876 W/m/K
472.96 K, 4064 kPa, transient hot wire	0.03659 W/m/K
472.97 K, 2265 kPa, transient hot wire	0.02862 W/m/K
472.98 K, 4064 kPa, transient hot wire	0.0367 W/m/K
472.99 K, 3605 kPa, transient hot wire	0.03603 W/m/K
472.99 K, 3606 kPa, transient hot wire	0.0358 W/m/K
472.99 K, 5939 kPa, transient hot wire	0.03924 W/m/K
473.01 K, 4823 kPa, transient hot wire	0.03784 W/m/K
473.03 K, 4823 kPa, transient hot wire	0.038 W/m/K
473.06 K, 1890 kPa, transient hot wire	0.02666 W/m/K
473.06 K, 2265 kPa, transient hot wire	0.02868 W/m/K
473.06 K, 5939 kPa, transient hot wire	0.03956 W/m/K
473.07 K, 605 kPa, hot wire	0.02596 W/m/K
473.08 K, 606 kPa, hot wire	0.02604 W/m/K
473.08 K, 1889 kPa, transient hot wire	0.02628 W/m/K
473.08 K, 2265 kPa, transient hot wire	0.02867 W/m/K
473.08 K, 5937 kPa, transient hot wire	0.03959 W/m/K
473.1 K, 4824 kPa, transient hot wire	0.03789 W/m/K and 0.03779 W/m/K
473.11 K, 430 kPa, hot wire	0.0254 W/m/K
473.13 K, 429 kPa, hot wire	0.02498 W/m/K
473.14 K, 204 kPa, hot wire	0.0245 W/m/K and 0.02427 W/m/K
473.14 K, 5937 kPa, transient hot wire	0.03959 W/m/K and 0.03958 W/m/K
473.15 K, 1888 kPa, transient hot wire	0.0266 W/m/K
473.16 K, 2265 kPa, transient hot wire	0.02905 W/m/K
473.17 K, 607 kPa, hot wire	0.02579 W/m/K
473.17 K, 2265 kPa, transient hot wire	0.0291 W/m/K
473.18 K, 607 kPa, hot wire	0.02602 W/m/K
473.19 K, 7819 kPa, transient hot wire	0.04147 W/m/K
473.19 K, 49267 kPa, transient hot wire	0.06278 W/m/K
473.21 K, 47 kPa, hot wire	0.02404 W/m/K
473.21 K, 427 kPa, hot wire	0.02512 W/m/K
473.21 K, 49264 kPa, transient hot wire	0.06294 W/m/K
473.22 K, 426 kPa, hot wire	0.02501 W/m/K
473.22 K, 5937 kPa, transient hot wire	0.03959 W/m/K
473.23 K, 47 kPa, hot wire	0.02385 W/m/K
473.24 K, 203 kPa, hot wire	0.02435 W/m/K and 0.02438 W/m/K
473.24 K, 5937 kPa, transient hot wire	0.03993 W/m/K
473.26 K, 49261 kPa, transient hot wire	0.06261 W/m/K
473.26 K, 49266 kPa, transient hot wire	0.06275 W/m/K
473.27 K, 607 kPa, hot wire	0.02598 W/m/K and 0.02584 W/m/K
473.27 K, 1888 kPa, transient hot wire	0.02674 W/m/K
473.27 K, 49222 kPa, transient hot wire	0.06278 W/m/K
473.27 K, 49223 kPa, transient hot wire	0.06286 W/m/K
473.28 K, 47 kPa, hot wire	0.02405 W/m/K
473.28 K, 1888 kPa, transient hot wire	0.02686 W/m/K
473.28 K, 7819 kPa, transient hot wire	0.0414 W/m/K
473.29 K, 423 kPa, hot wire	0.02534 W/m/K
473.29 K, 5935 kPa, transient hot wire	0.03933 W/m/K
473.29 K, 7822 kPa, transient hot wire	0.04164 W/m/K
473.3 K, 47 kPa, hot wire	0.02401 W/m/K
473.3 K, 425 kPa, hot wire	0.02526 W/m/K
473.31 K, 5936 kPa, transient hot wire	0.03955 W/m/K
473.33 K, 202 kPa, hot wire	0.02458 W/m/K
473.33 K, 7818 kPa, transient hot wire	0.04161 W/m/K
473.33 K, 33947 kPa, transient hot wire	0.05683 W/m/K
473.33 K, 49216 kPa, transient hot wire	0.06307 W/m/K
473.34 K, 203 kPa, hot wire	0.02431 W/m/K
473.34 K, 33948 kPa, transient hot wire	0.05717 W/m/K
473.35 K, 47 kPa, hot wire	0.02449 W/m/K
473.35 K, 49221 kPa, transient hot wire	0.06272 W/m/K
473.36 K, 47 kPa, hot wire	0.02437 W/m/K
473.36 K, 606 kPa, hot wire	0.02606 W/m/K
473.36 K, 7821 kPa, transient hot wire	0.04152 W/m/K
473.37 K, 607 kPa, hot wire	0.0258 W/m/K
473.38 K, 420 kPa, hot wire	0.02536 W/m/K
473.38 K, 1887 kPa, transient hot wire	0.02681 W/m/K
473.38 K, 1913 kPa, transient hot wire	0.02688 W/m/K
473.38 K, 49255 kPa, transient hot wire	0.06283 W/m/K
473.39 K, 419 kPa, hot wire	0.0252 W/m/K
473.39 K, 1474 kPa, transient hot wire	0.02551 W/m/K
